# Legend:
# HeLa cells [1] = test: Live cell labeling kinetics of split HaloTag fragments fused to BRD4 and Histone H3, time-lapse imaging; type: cell-based; settings: 100 nM JF646, BRD4-HaloTag[3-19] and H3.3-HaloTag[22-297](M2F)-EGFP
# Description: FIG. 136. Timepoint imaging of complemented BRD4:Histone H3 complexes in live cells after addition of JF646 HaloTag ligand. […] Cells were immediately imaged after the ligand, 100 nM JF646, addition every 15 minutes for 1.5 hour. Imaging data were collected in the Far-red channel (Ex. 637 nm, top panel) and the green channel (Ex. 488 nm, bottom panel).
# FIG. 137. Quantitation of live cell labeling kinetics of split HaloTag fragments fused to BRD4 and Histone H3 using time-lapse imaging. Cells were immediately imaged after the ligand addition every 10 minutes for 70 minutes. A Z-stack image was obtained at all time points to ensure all cells were captured in focus. The most focused Z levels were merged into one, and the intensity of all cells (6 total objects) was measured and averaged at all time points. The average of all cells' intensities present in the captured field of view were tracked in the far-red channel and the green channel over this period. […]
# To measure the labeling rate, cells were immediately imaged after ligand addition every 10 minutes for 70 minutes (FIG. 137). […] The most focused Z levels were merged into one, and the intensity of all cells (6 total objects) was measured and averaged at all time points. […]
# [2] = molecular target: T1, Calmodulin:M13 interaction (Homo sapiens, UniProt P0DP23); test: Calmodulin:M13 interaction with split HaloTag, plate assay in live HeLa cells; type: cell-based
# T1 construct: HaloTag[3-19]; expressed in transfected cells; host or cells: HeLa cells
# Description: FIG. 140. Use of split HaloTag in detecting the interaction between Calmodulin and M13 peptide induced by the Calcium ions in live mammalian cells. […] The fluorescence activity was measured at indicated time points. For each construct, four technical replicates were tested. The bar for each construct is the mean of the four replicates, and the error bar represents the standard deviations.
# FIG. 141. The fold response of split HaloTag in detecting the interaction between Calmodulin and M13 peptide induced by the Calcium ions in live mammalian cells. The fold response of each assay condition was calculated as the ratio of fluorescence signal for +Calcium chloride divided by −Calcium chloride treated cells (B). For each construct, four technical replicates have been tested. The bar for each construct is the mean of the four replicates, and the error bar represents the standard deviations.
# [3] = molecular target: T1, Calmodulin:M13 interaction; test: Calmodulin:M13 interaction with split HaloTag, live cell imaging in HeLa cells; type: cell-based
# Description: FIG. 142. Live cell imaging of split HaloTag function in detecting the interaction between Calmodulin protein with the M13 peptide induced upon the addition of Ca ions in live mammalian cells. […] Prior to imaging by confocal microscopy, cells were labeled with 100 nM JF646 HaloTag ligand for 30 minutes at 37° C. The imaging data were collected in the far-red channel (Ex. 637 nm) and the green channel (Ex. 488 nm).
# FIG. 143. Background measurement of HaloTag[22-297](M2F) fused to M13 peptide in live mammalian cells at lower laser intensity To measure the background originating from labeling the HaloTag [22-297](M2F) fragment, cells were transfected with just the M13-HaloTag[22-297](M2F)-EGFP plasmid and imaged using the same microscope settings. The Imaging data were collected in the far-red channel (Ex. 637 nm) and the green channel (Ex. 488 nm).
# FIG. 144. Quantitation of live cell imaging of split HaloTag function in detecting the Calmodulin and M13 peptide interaction in live mammalian cells. Comparison of the fluorescent intensity of all imaged cells across several fields of view in the presence or absence of Calcium chloride (6 mM) conditions compared against the background fluorescent intensity of the labeled non-complemented HaloTag[22-297](M2F) fragment alone. Each dot represents the intensity of an imaged cell. CellProfiler software is used for this analysis.
# HeLa cells [4] = test: Split HaloTag FRB/FKBP plate-based fluorescent assay in live HeLa cells; type: cell-based; settings: for performance of small HaloTag fragment: live HeLa cells, 500 nM Rapamycin, 50 nM JF646
# Description: FIG. 27A-B. Activity of split HaloTag combinations in live mammalian cells. HeLa cells transiently transfected with plasmids expressing the large HaloTag fragments fused to FRB and small HaloTag fragments fused to FKBP were incubated for 2 hours with 500 nM Rapamycin, followed by labeling with 50 nM JF646 HaloTag ligand prior to detection of fluorescence at indicated timepoints. FIG. 27A Fluorescence intensity of JF646 HaloTag ligand in live cell assays over time comparing cells treated or untreated with Rapamycin. FIG. 27B Fold response of each assay condition was calculated as the ratio of fluorescence signal for +Rapamycin/−Rapamycin treated cells.
# (§1) FIG. 90. The activity of different small HaloTag fragments in live mammalian cells. HeLa cells transiently transfected with plasmids expressing the large HaloTag fragment fused to FRB and small HaloTag fragments fused to FKBP were incubated for 2 hours with 500 nM Rapamycin, followed by labeling with 50 nM JF646 HaloTag ligand prior to detection of fluorescence activity at indicated time points. Fluorescence intensity of JF646 HaloTag ligand in live cell assays over time comparing cells treated or untreated with Rapamycin.
# (§2) FIG. 91. Fold response of different small HaloTag fragments in live mammalian cells. HeLa cells transiently transfected with plasmids expressing the large HaloTag fragment fused to FRB and small HaloTag fragments fused to FKBP were incubated for 2 hours with 500 nM Rapamycin, followed by labeling with 50 nM JF646 HaloTag ligand prior to detection of fluorescence activity at indicated time points. The fold response of each assay condition was calculated as the ratio of fluorescence signal for +Rapamycin/−Rapamycin treated cells.
# as §1, with “93. Activity comparison” for “90. The activity”, “HaloTag[22-297] variants in a protein complementation assay” for “different small HaloTag fragments”
# as §2, with “94. […]” for “91. Fold response of different small HaloTag fragments in live mammalian cells.”, “+Rapamycin/− Rapamycin” for “+Rapamycin/−Rapamycin”, “cells. […]” for “cells.”
# [5] = Complementation of N-terminal split HaloTag constructs in E. coli lysates, Janelia Fluor ligand fluorescence; type: biochemical; settings: FKBP fusion against HT(23-297)-FRB, 500 nM Rapamycin, JF646
# Description: FIG. 21A-B. Comparison of complementation activity of N-terminal split HaloTag constructs. Each HaloTag fragment was expressed separately in E. coli and then combined after lysis. The smaller N-terminal HaloTag fragments as FKBP fusions were tested against the larger fragments of FIG. 21A HT(23-297)-FRB or FIG. 21B HT(22-297)-FRB. To each reaction, 500 nM Rapamycin was added and incubated at room temperature for 2.5 hours prior to addition of 50 nM JF646 ligand and measurement of fluorescence at the indicated timepoint.
# FIG. 22. Comparison of truncations of N-terminal split HaloTag constructs. Each HaloTag fragment was expressed separately in E. coli and then combined after lysis. […] To each reaction, 500 nM Rapamycin was added and incubated at room temperature for 2 hours prior to addition of 50 nM JF646 ligand and measurement of fluorescence at the indicated timepoint.
# FIG. 25A-B. Mutations in N-terminal split HaloTag fragments improve fluorescence intensity and fold response. […] To each reaction, 500 nM Rapamycin was added and incubated at room temperature for 2 hours prior to addition of 50 nM JF646 ligand and measurement of fluorescence at the indicated timepoint. FIG. 25A Fluorescence intensity is shown for +Rapamycin condition to show the overall system brightness relative to FIG. 25B Fold response following Rapamycin addition. […]
molecule,measurement,setting,value
C[Si]1(C)c2cc(N3CCC3)ccc2C2(OC(=O)c3ccc(C(=O)NCCOCCOCCCCCCCl)cc32)c2ccc(N3CCC3)cc21 [JF646],time for far-red channel signal to reach its maximum,HeLa cells [1],about 40 minutes
"[Ca+2].[Cl-].[Cl-] [calcium, Calcium chloride]",change in fluorescence of split HaloTag fused to Calmodulin and M13 peptide,[2],"modest, calcium-dependent increase in fluorescence"
same,change in fluorescence from split HaloTag complementation,"[3]; 6 mM Calcium chloride, microscopy",significant increase in fluorescence
same,increase in median fluorescence,"[3]; across all cell images, Calcium chloride 6 mM",7 ×
"HaloTag[1-30]: small HaloTag fragment, residues 1-30, FKBP fusion",performance of small HaloTag fragment,HeLa cells [4],best SmHT in this assay
same,background complementation,HeLa cells [4]; no Rapamycin,higher background (no Rapamycin) complementation
"HT(4-19): small HaloTag fragment, residues 4-19, FKBP fusion",performance of small HaloTag fragment,HeLa cells [4],good fluorescence intensities and high fold responses
"HT(8-19): truncated small N-terminal HaloTag fragment, residues 8-19, FKBP fusion",complementation activity of truncated small fragment,[5],Complementation activity was demonstrated
"HaloTag[3-19]: small HaloTag fragment, residues 3-19 of the HALOTAG sequence; used as fusion or synthetic peptide (EIGTGFPFDPHYVEVLG)",performance of small HaloTag fragment,HeLa cells [4],good fluorescence intensities and high fold responses

# Source: patent publication US20240174992A1, “SPLIT MODIFIED DEHALOGENASE VARIANTS” (Promega Corporation, priority 2022, published 2024)
